From patent publication US20230416248A1, “COMPOUNDS AND USES THEREOF” (Foghorn Therapeutics Inc., priority 2020, published 2023)
Read-outs that look alike come from different tables or passages of the source.

Experiments:
BRG-1 = molecular target: T1, BRG-1 (Homo sapiens, UniProt P51532); experiment: ATPase catalytic activity of BRG-1, ADP-Glo in vitro biochemical assay; conditions: 30 nM BRG-1, 400 μM ATP, read-out: BRG1 IC50
T1 construct: made in house; host or cells: High Five insect cells
Outline: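 Luminescence read-out: ADP formed by BRG-1 ATPase is converted to ATP and detected by luciferase. Residual ATP is first removed with ADP-Glo Reagent for 40 min at RT; detection reagent is then incubated 60 min at RT before reading.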

BRM = molecular target: T2, BRM (Homo sapiens, UniProt P51531); experiment: ATPase catalytic activity of BRM, ADP-Glo in vitro biochemical assay; conditions: for IC50: 30 nM BRM, 400 μM ATP; for Ratio* (BRG1 IC50 (μM) divided by BRM IC50 (μM)): selectivity ratio BRG1 IC50 / BRM IC50
T2 construct: made in house; host or cells: High Five insect cells
Outline: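 ADP-Glo luminescence, after depletion of leftover ATP and conversion of ADP, reported the activity. The 1 h room-temperature reaction held 400 μM ATP, 20 nM salmon sperm DNA and 30 nM BRM in 20 mM Tris pH 8, 20 mM MgCl2, 50 mM NaCl, 0.1% Tween-20, 1 mM DTT.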

[1] = ATPase catalytic activity, ADP-Glo

T2 sequence (P51531 whole entry): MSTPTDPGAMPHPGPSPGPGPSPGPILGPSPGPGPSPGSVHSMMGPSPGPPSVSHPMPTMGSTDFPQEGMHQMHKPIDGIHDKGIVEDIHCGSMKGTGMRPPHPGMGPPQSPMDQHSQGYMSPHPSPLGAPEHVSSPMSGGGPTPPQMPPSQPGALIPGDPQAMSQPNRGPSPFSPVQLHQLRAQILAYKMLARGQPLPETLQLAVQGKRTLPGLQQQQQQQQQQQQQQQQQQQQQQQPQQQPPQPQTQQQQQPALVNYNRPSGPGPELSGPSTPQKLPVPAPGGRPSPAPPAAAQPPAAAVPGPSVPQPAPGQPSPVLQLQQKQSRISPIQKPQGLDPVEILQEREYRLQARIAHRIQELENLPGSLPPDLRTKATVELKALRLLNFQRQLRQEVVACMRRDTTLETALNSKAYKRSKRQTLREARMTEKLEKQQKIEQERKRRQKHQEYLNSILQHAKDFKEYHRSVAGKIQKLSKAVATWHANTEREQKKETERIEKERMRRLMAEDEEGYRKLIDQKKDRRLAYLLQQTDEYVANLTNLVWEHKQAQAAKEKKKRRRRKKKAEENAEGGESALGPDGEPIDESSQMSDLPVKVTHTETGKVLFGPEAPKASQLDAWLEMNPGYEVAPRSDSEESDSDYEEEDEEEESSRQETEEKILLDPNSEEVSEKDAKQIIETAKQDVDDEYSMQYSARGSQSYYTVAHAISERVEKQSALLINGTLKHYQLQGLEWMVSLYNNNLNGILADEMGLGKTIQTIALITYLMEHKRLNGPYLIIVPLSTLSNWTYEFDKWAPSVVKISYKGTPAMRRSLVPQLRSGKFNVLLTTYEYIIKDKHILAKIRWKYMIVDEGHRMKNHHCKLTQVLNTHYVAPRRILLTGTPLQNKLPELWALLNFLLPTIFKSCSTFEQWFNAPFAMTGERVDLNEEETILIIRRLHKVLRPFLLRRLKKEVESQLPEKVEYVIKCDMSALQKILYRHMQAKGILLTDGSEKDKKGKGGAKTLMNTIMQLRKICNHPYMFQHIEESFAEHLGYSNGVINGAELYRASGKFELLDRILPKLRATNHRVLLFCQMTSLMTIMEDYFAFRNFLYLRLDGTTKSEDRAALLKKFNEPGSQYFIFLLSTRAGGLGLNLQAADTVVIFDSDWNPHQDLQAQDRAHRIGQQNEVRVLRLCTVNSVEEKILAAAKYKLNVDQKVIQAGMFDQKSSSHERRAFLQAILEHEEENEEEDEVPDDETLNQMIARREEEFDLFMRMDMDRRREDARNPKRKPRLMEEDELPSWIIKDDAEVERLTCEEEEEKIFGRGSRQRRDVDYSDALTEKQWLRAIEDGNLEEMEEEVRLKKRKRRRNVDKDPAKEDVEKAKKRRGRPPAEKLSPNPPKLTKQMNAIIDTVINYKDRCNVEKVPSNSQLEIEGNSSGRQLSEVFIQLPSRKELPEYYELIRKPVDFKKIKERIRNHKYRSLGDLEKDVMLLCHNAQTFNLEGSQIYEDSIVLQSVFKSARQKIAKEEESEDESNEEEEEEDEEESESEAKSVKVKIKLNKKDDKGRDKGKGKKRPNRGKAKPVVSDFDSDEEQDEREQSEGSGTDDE
T1 sequence (P51532 whole entry): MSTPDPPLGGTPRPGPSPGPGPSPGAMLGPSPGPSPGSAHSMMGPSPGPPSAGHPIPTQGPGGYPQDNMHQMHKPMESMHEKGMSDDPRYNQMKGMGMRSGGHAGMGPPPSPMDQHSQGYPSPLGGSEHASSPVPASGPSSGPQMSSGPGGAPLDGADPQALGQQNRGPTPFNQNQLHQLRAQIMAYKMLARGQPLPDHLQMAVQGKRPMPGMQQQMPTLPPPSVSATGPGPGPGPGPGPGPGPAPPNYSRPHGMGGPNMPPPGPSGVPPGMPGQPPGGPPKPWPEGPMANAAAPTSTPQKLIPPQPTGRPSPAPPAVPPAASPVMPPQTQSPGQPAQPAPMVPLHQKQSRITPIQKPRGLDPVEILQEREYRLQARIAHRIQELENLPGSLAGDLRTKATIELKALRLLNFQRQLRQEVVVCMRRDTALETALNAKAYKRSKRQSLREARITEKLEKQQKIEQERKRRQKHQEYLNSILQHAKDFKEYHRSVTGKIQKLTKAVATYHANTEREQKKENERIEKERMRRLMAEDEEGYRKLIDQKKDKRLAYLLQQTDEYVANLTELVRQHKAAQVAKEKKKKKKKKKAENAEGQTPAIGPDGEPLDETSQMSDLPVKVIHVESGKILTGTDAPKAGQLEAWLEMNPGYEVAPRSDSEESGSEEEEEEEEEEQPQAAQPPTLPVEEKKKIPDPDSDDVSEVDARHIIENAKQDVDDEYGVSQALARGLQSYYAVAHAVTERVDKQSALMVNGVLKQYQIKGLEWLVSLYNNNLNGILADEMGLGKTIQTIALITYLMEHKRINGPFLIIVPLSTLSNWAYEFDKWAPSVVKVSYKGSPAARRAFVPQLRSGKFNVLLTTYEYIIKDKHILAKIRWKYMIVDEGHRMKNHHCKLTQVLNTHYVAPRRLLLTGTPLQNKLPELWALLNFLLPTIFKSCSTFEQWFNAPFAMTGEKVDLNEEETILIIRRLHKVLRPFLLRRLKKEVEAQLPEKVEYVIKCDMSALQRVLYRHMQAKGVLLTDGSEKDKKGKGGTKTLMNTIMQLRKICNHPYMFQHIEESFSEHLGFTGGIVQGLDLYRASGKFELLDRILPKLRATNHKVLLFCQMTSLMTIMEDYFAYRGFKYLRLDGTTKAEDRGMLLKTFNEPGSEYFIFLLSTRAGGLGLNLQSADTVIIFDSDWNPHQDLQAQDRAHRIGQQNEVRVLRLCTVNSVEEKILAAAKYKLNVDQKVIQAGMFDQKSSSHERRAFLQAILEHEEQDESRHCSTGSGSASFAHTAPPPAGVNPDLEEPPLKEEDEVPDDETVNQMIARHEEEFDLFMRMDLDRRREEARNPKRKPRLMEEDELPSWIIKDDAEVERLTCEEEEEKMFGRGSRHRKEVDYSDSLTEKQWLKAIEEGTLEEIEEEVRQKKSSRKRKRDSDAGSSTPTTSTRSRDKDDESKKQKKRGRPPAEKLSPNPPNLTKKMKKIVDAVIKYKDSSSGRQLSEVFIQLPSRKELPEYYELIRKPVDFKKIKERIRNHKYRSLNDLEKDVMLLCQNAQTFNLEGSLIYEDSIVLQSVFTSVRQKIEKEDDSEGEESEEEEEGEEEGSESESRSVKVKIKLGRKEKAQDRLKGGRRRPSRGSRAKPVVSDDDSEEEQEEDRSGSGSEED

Compound | IC50 (BRG-1; ADP-Glo ATPase assay) | IC50 (BRM; ADP-Glo ATPase assay) | Ratio* (BRG1 IC50 (μM) divided by BRM IC50 (μM)) (BRM) | IC50 (BRG-1; [1]) | IC50 (BRM; [1]) | Ratio* (BRM; ratio of BRG1 IC50 to BRM IC50) | Ratio* (BRM; ratio BRG1 IC50 / BRM IC50)
C[C@@H]1CN(c2cccc(-c3ccc4cnc(CNC(=O)c5ccc6c(c5)S(=O)(=O)[C@@H](C)CCO6)cc4n3)n2)C[C@H](C)O1 [Compound 15] | 0.0511 µM | 0.0075 µM | 6.80 | – | – | – | –
COc1cnc2c(c1)OCCN2c1ccc2cnc(CNC(=O)c3ccc4c(c3)S(=O)(=O)CCOC4)cc2n1 [Compound 619] | – | – | – | 0.0627 µM | 0.0056 µM | 11.17 | –
O=C(NCc1cc2nc(N3CCN(CC(F)F)c4cccnc43)ccc2cn1)c1ccc2c(c1)S(=O)(=O)CCOC2 [Compound 742] | 0.478 µM | 0.024 µM | – | – | – | – | 19.92
COc1cccc(-c2ccc3cnc(CNC(=O)c4ccc5c(c4)S(=O)(=O)CCOC5)cc3n2)n1 [Compound 487] | – | – | – | 0.344 µM | 0.0219 µM | 15.66 | –
Cc1cnc2c(c1)OCCN2c1ccc2cnc(CNC(=O)c3cc(F)c4c(c3)S(=O)(=O)CCOC4)cc2n1 [Compound 550] | – | – | – | 0.0639 µM | 0.0053 µM | 12.09 | –
O=C(NCc1cc2nc(-c3ccc(Cl)c(OC(F)F)n3)ccc2cn1)c1ccc2c(c1)S(=O)(=O)CCOC2 [Compound 327] | – | – | – | 0.291 µM | 0.0192 µM | 15.15 | –
O=C(NCc1cc2cc(N3CCOc4cc(C5CC5)cnc43)cnc2cn1)c1ccc2c(c1)S(=O)(=O)CCOC2 [Compound 801] | 1.44 µM | 0.111 µM | – | – | – | – | 13.00
C[C@@H]1Cc2ccc(-c3ccc4cnc(CNC(=O)c5ccc6c(c5)S(=O)(=O)CCOC6)cc4n3)nc2N(C)C1 [Compound 661] | – | – | – | 0.301 µM | 0.0439 µM | 6.86 | –
C[C@H]1CN(c2cccc(-c3ccc4cnc(CNC(=O)c5ccc(C(F)F)c(S(C)(=O)=O)c5)cc4n3)n2)C[C@H](C)O1 [Compound 162] | 0.564 µM | 0.0384 µM | 14.67 | – | – | – | –
O=C(NCc1cc2nc(-c3cccc4c3CCCN4CC(F)F)ccc2cn1)c1ccc2c(c1)S(=O)(=O)CCOC2 [Compound 127] | 4.05 µM | 0.846 µM | 4.79 | – | – | – | –
CS(=O)(=O)c1cc(C(=O)NCc2cc3nc(-c4cncc(C5CC5)n4)ccc3cn2)ccc1C(F)F [Compound 231] | 2.34 µM | 0.13 µM | 17.98 | – | – | – | –
COc1nn(C2COC2)cc1-c1ccc2cnc(CNC(=O)c3ccc4c(c3)S(=O)(=O)CCOC4)cc2c1 [Compound 261] | 0.233 µM | 0.0165 µM | 14.10 | – | – | – | –
CN(C)c1cnc2c(c1)OCCN2c1ccc2cnc(CNC(=O)c3ccc4c(c3)S(=O)(=O)CCOC4)cc2c1 [Compound 790] | 0.0614 µM | 0.0122 µM | – | – | – | – | 5.03
O=C(NCc1cc2nc(-c3cccc(OCC4CC4)n3)ccc2cn1)c1ccc2c(c1)S(=O)(=O)CCOC2 [Compound 381] | – | – | – | 0.241 µM | 0.0194 µM | 12.43 | –
C[C@H]1COCc2ccc(C(=O)NCc3cc4nc(-c5cccc(OC(F)F)n5)ccc4cn3)cc2S1(=O)=O [Compound 384] | – | – | – | 0.407 µM | 0.0143 µM | 28.41 | –
C[C@@H](C1COC1)N(C)c1cccc(-c2ccc3cnc(CNC(=O)c4ccc5c(c4)S(=O)(=O)CCOC5)cc3n2)n1 [Compound 471] | – | – | – | 0.884 µM | 0.167 µM | 5.29 | –
COc1nc(C(C)(F)F)ccc1-c1ccc2cnc(CNC(=O)c3ccc4c(c3)S(=O)(=O)[C@@H](C)COC4)cc2n1 [Compound 542] | – | – | – | 0.229 µM | 0.0168 µM | 13.60 | –
Cc1ccc2c(c1)OCCN2c1ccc2cnc(CNC(=O)c3cnc4c(c3)S(=O)(=O)[C@@H](C)COC4)cc2n1 [Compound 749] | 0.209 µM | 0.0126 µM | – | – | – | – | 16.64
CC(C)(F)c1cccc(-c2ccc3cnc(CNC(=O)c4ccc5c(c4)S(=O)(=O)CCOC5)cc3n2)n1 [Compound 280] | 2.17 µM | 0.212 µM | 10.26 | – | – | – | –
CS(=O)(=O)c1cc(C(=O)NCc2cc3nc(-c4cccc(N5CC[C@@H]6OCC[C@H]6C5)n4)ccc3cn2)ccc1C(F)F [Compound 123] | 0.29 µM | 0.0232 µM | 12.51 | – | – | – | –
Cc1ncc(C(=O)NCc2cc3nc(-c4cncc(C5CC5)n4)ccc3cn2)cc1S(C)(=O)=O [Compound 298] | 2.19 µM | 0.221 µM | 9.90 | – | – | – | –
Cn1ccc(-c2cccc(-c3ccc4cnc(CNC(=O)c5ccc6c(c5)S(=O)(=O)CCOC6)cc4n3)c2)n1 [Compound 244] | 0.337 µM | 0.0207 µM | 16.32 | – | – | – | –
O=C(NCc1cc2nc(N3CCOc4ccc([C@H](F)CF)nc43)ccc2cn1)c1ccc2c(c1)S(=O)(=O)CCOC2 [Compound 856] | 0.664 µM | 0.0119 µM | – | – | – | – | 55.91
CN(C)[C@@H]1CCN(c2cccc(-c3ccc4cnc(CNC(=O)c5ccc6c(c5)S(=O)(=O)CCOC6)cc4n3)n2)CC1(F)F [Compound 79] | 0.116 µM | 0.0146 µM | 7.89 | – | – | – | –

Next, values leading:

IC50 (BRG-1; ADP-Glo ATPase assay) | IC50 (BRM; ADP-Glo ATPase assay) | Ratio* (BRG1 IC50 (μM) divided by BRM IC50 (μM)) (BRM) | IC50 (BRG-1; [1]) | IC50 (BRM; [1]) | Ratio* (BRM; ratio of BRG1 IC50 to BRM IC50) | Ratio* (BRM; ratio BRG1 IC50 / BRM IC50) | Compound
0.0996 µM | 0.0105 µM | – | – | – | – | 9.44 | COc1ccc(F)c2c1CCCN2c1ccc2cnc(CNC(=O)c3ccc4c(c3)S(=O)(=O)CCOC4)cc2n1 [Compound 718]
2.77 µM | 0.253 µM | 10.96 | – | – | – | – | O=C(NCc1cc2nc(-c3cccc(OCC(F)F)c3)ccc2cn1)c1ccc2c(c1)S(=O)(=O)CCOC2 [Compound 103]
– | – | – | 0.889 µM | 0.108 µM | 8.21 | – | O=C(NCc1cc2nc(N3CCCc4ccc(OC(F)F)nc43)ccc2cn1)c1ccc2c(c1)S(=O)(=O)CCOC2 [Compound 643]
– | – | – | 1.23 µM | 0.0438 µM | 27.99 | – | C[C@@H]1CN(c2cccc(-c3ccc4cnc(CNC(=O)c5ccc6c(c5)S(=O)(=O)CC[C@@H]6C)cc4n3)n2)C[C@H](C)O1 [Compound 483]
5 µM | 0.819 µM | 6.11 | – | – | – | – | CS(=O)(=O)c1cc(C(=O)NCc2cc3nc(-c4cncc(C5CC5)n4)ccc3cn2)ccc1C1CC1 [Compound 266]
1.7 µM | 0.176 µM | 9.69 | – | – | – | – | O=C(NCc1cc2nc(-c3cccc([C@@H]4CC4(F)F)c3)ccc2cn1)c1ccc2c(c1)S(=O)(=O)CCOC2 [Compound 251]
0.0435 µM | 0.0087 µM | – | – | – | – | 4.99 | CN(c1cnc2c(c1)OCCN2c1ccc2cnc(CNC(=O)c3ccc4c(c3)S(=O)(=O)CCOC4)cc2n1)C1CC1 [Compound 782]
1.57 µM | 0.127 µM | 12.44 | – | – | – | – | O=C(NCc1cc2nc(-c3cccc([C@@H]4CC4(F)F)n3)ccc2cn1)c1ccc2c(c1)S(=O)(=O)CCOC2 [Compound 270]
– | – | – | 0.35 µM | 0.0266 µM | 13.16 | – | CC1Cc2ccc(-c3ccc4cnc(CNC(=O)c5ccc6c(c5)S(=O)(=O)CCOC6)cc4n3)nc2N(C)C1 (stereo not drawn) [Compound 612]
0.669 µM | 0.0608 µM | 11.00 | – | – | – | – | Cn1ccc2c(-c3ccc4cnc(CNC(=O)c5ccc6c(c5)S(=O)(=O)CCOC6)cc4n3)ccnc21 [Compound 151]
